# Measured values from patent publication US10919896B2, “Preparation and uses of pyrimidinone derivatives” (Cancer Research Technology Limited, priority 2016, dated 2021).
# Where a name gives a salt, the structure may show the parent alone.
# Target: Cdc7/ASK (Homo sapiens, UniProt O00311)
# Assay: Cdc7 Biochemical Assay Method 1: 384 well ELISA, whole protein substrate MCM2, antibody against Phospho MCM2 (S53)
# Parameters: purchased
# Conditions: 2 μM ATP, read-out: Biochemical Method 1 (pIC50) (converted)
# Protocol: This protocol describes a method for assaying Cdc7/ASK for activity. The assay is a 384 well ELISA assay, utilising a whole protein substrate (MCM2) and an antibody against Phospho MCM2 (S53). This site is thought to be specific to Cdc7/ASK phosphorylation and the assay has been validated using knockout mutants. Reagents • TBS: 25 mM Tris pH 7.2, 150 mM NaCl. (Dilute 10× stock by 1:10). • Wash Buffer: TBS+0.05% Tween 20. (Add 100 mL 1 M Tris pH 7.2, 120 mL 5 M NaCl and 2 mL 100% Tween 20 per 4 L). • Kinase Reaction Buffer: 50 mM Tris-HCl pH 8.5, 10 mM MgCl2, 1 mM DTT. (Dilute 10× stock by 1:10 and add 100 μL 1M DTT per 100 mL prior to assay). • Diethanolamine Buffer: 1 M diethanolamine pH 9.8, 0.5 mM MgCl2. • Stop Solution: 1 M NaOH. • MCM2 was expressed and purified in-house and used in the assay at a final assay concentration of 436 ng/well. • Cdc7/ASK is purchased from commercial suppliers and used in the assay at a final assay concentration of 37.97 ng/well or 20.63 nM. • ATP used as a final assay concentration of 2 μM. • Primary Antibody: Rabbit anti-Phospho MCM2 (S53 Antibody (BL3353)), is purchased from commercial suppliers at 0.2 mg/mL and used at a final assay concentration by diluting 1:800 in TBS. • Secondary Antibody: Anti-Rabbit/AP Antibody is supplied is purchased from commercial suppliers at 1 mg/mL and used at a final assay concentration by diluting 1:2000 in TBS. • Development Reagent: Dissolve one 20 mg PNPP tablet (Sigma, product […], 20 mg per tablet) per 20 mL diethanolamine Buffer (or one 5 mg PNPP tablet per 5 mL diethanolamine buffer). Cover in foil and leave shaking on a roller shaker at room temperature for up to an hour to dissolve. Methods • 1. Add 20 μL 1× working stock of Substrate (MCM2) in TBS to all wells of a clear, 384 well, Nickel-chelate microplate to give a final concentration of […]. Incubate at room temperature for at least 1 hour. Plates can be pre-coated for 1 hour and stored at 4° C. for up to 8 days. • 2. Wash with TBS+0.05% Tween 20 (80 μL×3). • 3. Add 2 μL 10× test compounds, including the positive control, in 40% DMSO/water to 'test' wells. Add 2 μL 40% DMSO/water to 'control' and 'blank' wells. The final DMSO concentration will be 4%. • 4. Add 13 μL CDC7/ASK Kinase (1.5× stock) in Kinase Reaction Buffer to 'test' and 'control' wells to give a final concentration of […]. Add 13 μL Kinase Reaction Buffer to 'blank' wells. • 5. Add 5 μL ATP (4× stock) in Kinase Reaction Buffer to all wells to give a final concentration of 2 μM. • 6. Incubate at room temperature for 90 minutes. • 7. Wash with TBS+0.05% Tween 20 (80 μL×3). • 8. Add 20 μL 1× working solution of Primary Antibody in TBS to all wells. Incubate at room temperature for 30 minutes. • 9. Wash with TBS+0.05% Tween 20 (80 μL×3). • 10. Add 20 μL 1× working solution of Secondary Antibody in TBS to all wells. Incubate at room temperature for 30 minutes. • 11. Wash with TBS+0.05% Tween 20 (80 μL×3). • 12. Add 20 μL 1× Development Reagent to all wells. • 13. Incubate at room temperature for 2 hours. Stop the reaction by adding 20 μL Stop Solution to all wells and record Absorbance on a Pherastar plate reader. Percentage inhibition values were calculated from absorbance values, using the no compound (DMSO) and no enzyme control values as 0% and 100% inhibition, respectively. IC50 determination was performed with ExcelFit software (IDBS) using curve fit 205. Z' factors were determined for each plate tested and were all above 0.5. Method 2
# Cdc7/ASK, sequence (O00311 whole entry): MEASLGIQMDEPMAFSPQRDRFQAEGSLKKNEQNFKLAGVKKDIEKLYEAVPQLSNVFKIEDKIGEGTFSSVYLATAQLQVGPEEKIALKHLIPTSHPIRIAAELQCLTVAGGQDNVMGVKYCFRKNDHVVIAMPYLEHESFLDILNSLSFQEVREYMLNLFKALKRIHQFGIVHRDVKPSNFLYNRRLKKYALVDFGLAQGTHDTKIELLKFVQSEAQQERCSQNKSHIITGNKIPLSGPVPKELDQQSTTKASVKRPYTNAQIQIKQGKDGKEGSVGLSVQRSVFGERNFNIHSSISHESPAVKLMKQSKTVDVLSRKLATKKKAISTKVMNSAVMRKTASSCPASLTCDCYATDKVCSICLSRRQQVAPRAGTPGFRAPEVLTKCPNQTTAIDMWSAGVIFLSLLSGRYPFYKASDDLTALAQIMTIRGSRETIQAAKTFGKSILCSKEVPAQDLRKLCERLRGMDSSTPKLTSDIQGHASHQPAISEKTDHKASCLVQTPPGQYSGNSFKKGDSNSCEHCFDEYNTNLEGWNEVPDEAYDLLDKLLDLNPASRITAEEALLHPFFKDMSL
# Cdc7/ASK, sequence (Q9UBU7 whole entry partner): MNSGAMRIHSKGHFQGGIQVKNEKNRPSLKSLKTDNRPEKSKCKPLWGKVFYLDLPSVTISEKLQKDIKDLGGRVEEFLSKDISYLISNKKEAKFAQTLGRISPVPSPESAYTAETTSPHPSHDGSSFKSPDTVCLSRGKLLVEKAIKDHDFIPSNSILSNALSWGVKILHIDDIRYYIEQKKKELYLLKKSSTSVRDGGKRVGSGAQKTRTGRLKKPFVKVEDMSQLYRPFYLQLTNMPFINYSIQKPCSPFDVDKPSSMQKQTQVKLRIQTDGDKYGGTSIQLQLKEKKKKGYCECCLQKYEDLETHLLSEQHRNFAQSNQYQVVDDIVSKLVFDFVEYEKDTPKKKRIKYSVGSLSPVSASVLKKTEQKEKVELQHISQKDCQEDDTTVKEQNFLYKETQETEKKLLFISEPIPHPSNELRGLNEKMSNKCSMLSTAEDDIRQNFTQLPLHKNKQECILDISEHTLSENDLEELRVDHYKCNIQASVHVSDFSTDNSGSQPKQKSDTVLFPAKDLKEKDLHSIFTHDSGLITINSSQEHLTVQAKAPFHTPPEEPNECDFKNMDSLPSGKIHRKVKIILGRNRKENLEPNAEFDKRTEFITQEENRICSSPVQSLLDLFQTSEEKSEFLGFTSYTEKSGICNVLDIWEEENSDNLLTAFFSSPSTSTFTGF
row,SMILES,IC50 [nM]
1,CC(C)CC1CN(c2nc(-c3ccncc3)[nH]c(=O)c2Cl)CCO1 (centres unmarked) [Compound 93],407
2,N#CCN1CCN(c2nc(-c3ccncc3)[nH]c(=O)c2Cl)CC1 [Compound 148],33.9
3,CN(C)C(=O)CN1CCN(c2nc(-c3ccncc3)[nH]c(=O)c2Cl)CC1 [Compound 110],661
4,CCOC1CCN(c2nc(-c3ccncc3)[nH]c(=O)c2Cl)CC1 [Compound 27],21.4
5,Cc1cccc(C(=O)N2CCC(c3nc(-c4ccncc4)[nH]c(=O)c3Cl)CC2)c1 [Compound 72],6.92
6,CC(C)(C)OC(=O)N1CCC(F)(c2nc(-c3ccncc3)[nH]c(=O)c2Cl)CC1 [Compound 22],74.1
7,O=c1[nH]c(-c2ccncc2)nc(N2CCN[C@H](CCO)C2)c1Cl [Compound 174],30.9
8,O=C1CN(c2nc(-c3ccncc3)[nH]c(=O)c2Cl)CCN1 [Compound 33],12.9
9,CC(C)(C)N1CCN(c2nc(-c3ccncc3)[nH]c(=O)c2Cl)CC1 [Compound 155],977
10,O=c1[nH]c(-c2ccnc(F)c2)nc(C2(F)CCOCC2)c1Cl [Compound 18],0.794
11,O=c1[nH]c(-c2ccncc2)nc(C2CCNC2)c1Cl (centres unmarked) [Compound 11],5.25
12,O=c1[nH]c(-c2ccncc2)nc(N2CCCN3CCC[C@@H]3C2)c1Cl [Compound 120],245
13,"O=c1[nH]c(-c2ccncc2)nc(C2CCN(S(=O)(=O)c3ccccc3)CC2)c1Cl [Compound 37, 4-[1-(benzenesulfonyl)-4-piperidyl]-5-chloro-2-(4-pyridyl)-1H-pyrimidin-6-one]",30.2
14,CN(c1ccc(C(=O)N2CCC(c3nc(-c4ccncc4)[nH]c(=O)c3Cl)CC2)cc1)S(C)(=O)=O [Compound 65],5.89
15,"O=c1[nH]c(-c2ccnc(O)c2)nc(C2CCOCC2)c1Cl [Compound 402, 5-chloro-2-(2-hydroxy-4-pyridyl)-4-tetrahydropyran-4-yl-1H-pyrimidin-6-one]",112
16,O=C(c1ccccc1I)N1CCC(c2nc(-c3ccncc3)[nH]c(=O)c2Cl)CC1 [Compound 49],15.8
17,O=c1[nH]c(-c2ccncc2)nc(N2CCCNCC2)c1Cl [Compound 115],229
18,COC(=O)[C@@H]1CN(c2nc(-c3ccncc3)[nH]c(=O)c2Cl)CCN1C(=O)OC(C)(C)C [Compound 162],155
19,O=c1[nH]c(-c2ccncc2)nc(N2CCC3(COC3)C2)c1Cl [Compound 126],53.7

row,SMILES,IC50 [nM]
1,CC(=O)N1CCC(c2nc(-c3ccncc3)[nH]c(=O)c2Cl)CC1 [Compound 40],8.13
2,O=c1[nH]c(-c2ccncc2)nc(C2(F)CCNCC2)c1Cl [Compound 21],1.51
3,CS(=O)(=O)Cc1ccc(C(=O)N2CCC(c3nc(-c4ccncc4)[nH]c(=O)c3Cl)CC2)cc1 [Compound 73],5.13
4,Cc1ncsc1C(=O)N1CCC(c2nc(-c3ccncc3)[nH]c(=O)c2Cl)CC1 [Compound 67],1.55
5,Cc1cc(C(=O)N2CCC(c3nc(-c4ccncc4)[nH]c(=O)c3Cl)CC2)[nH]n1 [Compound 52],2.63
6,COc1cccc(N2CCN(c3nc(-c4ccncc4)[nH]c(=O)c3Cl)CC2)c1 [Compound 113],28.8
7,CCCC1COCCN1c1nc(-c2ccncc2)[nH]c(=O)c1Cl (centres unmarked) [Compound 95],67.6
8,"O=c1[nH]c(-c2ccncc2)nc(C2CCOCC2)c1I [Compound 4, 5-Iodo-2-(4-pyridyl)-4-tetrahydropyran-4-yl-1H-pyrimidin-6-one]",331
9,COc1ccc(S(N)(=O)=O)cc1C(=O)N1CCC(c2nc(-c3ccncc3)[nH]c(=O)c2Cl)CC1 [Compound 61],6.17
10,O=C(c1csnn1)N1CCC(c2nc(-c3ccncc3)[nH]c(=O)c2Cl)CC1 [Compound 59],2.57
11,CC(C)CCN1CCN(c2nc(-c3ccncc3)[nH]c(=O)c2Cl)CC1 [Compound 83],166
12,CC1(c2nc(-c3ccncc3)[nH]c(=O)c2Cl)CCOCC1 [Compound 9],3.39
13,NC(=O)C1CN(c2nc(-c3ccncc3)[nH]c(=O)c2Cl)CCO1 (centres unmarked) [Compound 96],42.7
14,"O=c1[nH]c(-c2ccncc2)nc(C2=CCOCC2)c1Cl [Compound 404, 5-chloro-4-(3,6-dihydro-2H-pyran-4-yl)-2-(4-pyridyl)-1H-pyrimidin-6-one]",166
15,CC(=O)N1CCN(c2nc(-c3ccncc3)[nH]c(=O)c2Cl)CC1 [Compound 42],5.13
16,O=C(c1ccccc1Cl)N1CCC(c2nc(-c3ccncc3)[nH]c(=O)c2Cl)CC1 [Compound 66],14.8
17,"O=c1[nH]c(-c2ccncc2)nc(C2CCOCC2)c1C(F)(F)F [Compound 406, 2-(4-pyridyl)-4-tetrahydropyran-4-yl-5-(trifluoromethyl)-1H-pyrimidin-6-one]",851
18,O=c1[nH]c(-c2ccncc2)nc(C2CNCCO2)c1Cl (centres unmarked) [Compound 20],347
19,O=CN1CCCN(c2nc(-c3ccncc3)[nH]c(=O)c2Cl)CC1 [Compound 119],3.55

row,SMILES,IC50 [nM]
1,CC(C)Oc1ccc(C(=O)N2CCC(c3nc(-c4ccncc4)[nH]c(=O)c3Cl)CC2)cc1 [Compound 63],3.24
2,CC(C)(C)N1CCCN(c2nc(-c3ccncc3)[nH]c(=O)c2Cl)CC1 [Compound 137],589
3,CC(C)(C)C(=O)N1CCC(c2nc(-c3ccncc3)[nH]c(=O)c2Cl)CC1 [Compound 44],63.1
4,O=c1[nH]c(-c2ccnc(F)c2)nc(C2CCOCC2)c1F [Compound 17],2.34
5,O=c1[nH]c(-c2ccncc2)nc(C2CCOCC2)c1Cl [Compound 6],1.45
6,CC(C)(C)OC(=O)NCC1CN(c2nc(-c3ccncc3)[nH]c(=O)c2Cl)CCO1 (centres unmarked) [Compound 98],85.1
7,O=c1[nH]c(-c2ccncc2)nc(C2CCCN2)c1Cl (centres unmarked) [Compound 7],2450
8,O=c1[nH]c(-c2ccncc2)nc(C2CCOC2)c1Cl (centres unmarked) [Compound 12],20
9,Cc1nc(C)c(C(=O)N2CCC(c3nc(-c4ccncc4)[nH]c(=O)c3Cl)CC2)s1 [Compound 54],0.871
10,"COC(=O)[C@@H]1CN(c2nc(-c3ccncc3)[nH]c(=O)c2Cl)CCN1 [Compound 163, methyl (2S)-4-[5-chloro-6-oxo-2-(4-pyridyl)-1H-pyrimidin-4-yl]piperazine-2-carboxylate hydrochloride]",67.6
11,O=C(c1ccnnc1)N1CCC(c2nc(-c3ccncc3)[nH]c(=O)c2Cl)CC1 [Compound 47],1.12
12,O=c1[nH]c(-c2ccncc2)nc(C2CCCNC2)c1Cl (centres unmarked) [Compound 8],3.63
13,CN(C)C(=O)C1CN(c2nc(-c3ccncc3)[nH]c(=O)c2Cl)CCO1 (centres unmarked) [Compound 97],200
14,CC1CN(c2nc(-c3ccncc3)[nH]c(=O)c2Cl)CC(C)O1 (centres unmarked) [Compound 92],83.2
15,"O=c1[nH]c(-c2ccncc2)nc(C2CCOCC2)c1Br [Compound 3, 5-bromo-2-(4-pyridyl)-4-tetrahydropyran-4-yl-1H-pyrimidin-6-one]",6.76
16,O=C(c1cccc(O)c1)N1CCC(c2nc(-c3ccncc3)[nH]c(=O)c2Cl)CC1 [Compound 50],3.09
17,N#Cc1cccc(C(=O)N2CCC(c3nc(-c4ccncc4)[nH]c(=O)c3Cl)CC2)c1 [Compound 48],2.57
18,"CC(C)(C)OC(=O)N1CC=C(c2nc(-c3ccncc3)[nH]c(=O)c2Cl)CC1 [Compound 405, tert-butyl 4-[5-chloro-6-oxo-2-(4-pyridyl)-1H-pyrimidin-4-yl]-3,6-dihydro-2H-pyridine-1-carboxylate]",562
